Data taken from article PMC6352943, “Novel pyrazolo[3,4-d]pyrimidines: design, synthesis, anticancer activity, dual EGFR/ErbB2 receptor tyrosine kinases inhibitory activity, effects on cell cycle profile and caspase-3-mediated apoptosis” (Journal of Enzyme Inhibition and Medicinal Chemistry, 2019).

Key:
Experiment in all cases: NCI 60 cell line single dose screen (SRB)
Type in all cases: cell-based
MDA-MB-435 = conditions: Homo sapiens; MDA-MB-435 (melanoma), single dose 10^−5 M, 48 h; read-out: Growth inhibition percentage
Description: (§1) Anticancer activity screening of the newly synthesised compounds was measured in vitro utilising 60 different human tumour cell lines provided by US National Cancer Institute according to previously reported standard procedure[27–29] as follows: Cells are inoculated into 96-well microtitre plates in 100 ml. After cell inoculation, the microtitre plates are incubated at 37 °C, 5% CO2, 95% air and 100% relative humidity for 24 h prior to addition of experimental compounds. After 24 h, two plates of each cell line are fixed in situ with TCA, to represent a measurement of the cell population for each cell line at the time of drug addition (Tz). Experimental compounds are solubilised in dimethyl sulphoxide at 400-fold the desired final maximum test concentration and stored frozen prior to use. At the time of compound addition, an aliquot of frozen concentrate is thawed and diluted to twice the desired final maximum test concentration with complete medium containing […] gentamicin. Aliquots of […] of the compounds dilutions are added to the appropriate microtitre wells already containing 100 ml of medium, resulting in the required final compound concentration. Following compound addition, the plates are incubated for an additional 48 h at 37 °C, 5% CO2, 95% air, and 100% relative humidity. For adherent cells, the assay is terminated by the addition of cold trichloroacetic acid (TCA). Cells are fixed in situ by the gentle addition of 50 ml of cold 50% (w/v) TCA (final concentration, 10% TCA) and incubated for 60 min at 4 °C. The supernatant is discarded, and the plates are washed five times with tap water and air-dried. Sulphorhodamine B (SRB) solution (100 ml) at 0.4% (w/v) in 1% acetic acid is added to each well, and plates are incubated for 10 min at room temperature. After staining, unbound dye is removed by washing five times with 1% acetic acid and the plates are air-dried. Bound stain is subsequently solubilised with 10 mM trizma base, and the absorbance is read on an automated plate reader at a wavelength of 515 nm. For suspension cells, the methodology is the same except that the assay is terminated by fixing settled cells at the bottom of the wells by gently adding 50 ml of 80% TCA (final concentration, 16% TCA). Using the absorbance measurements [time zero, (Tz), control growth, (C), and test growth in the presence of compound (Ti)], the percentage growth is calculated for each compound. Percentage growth inhibition is calculated as: [(Ti – Tz)/(C – Tz)] x 100 for concentrations for which Ti >/=Tz. [(Ti – Tz)/Tz] x 100 for concentrations for which Ti < Tz.

SK-MEL-5 = conditions: Homo sapiens; SK-MEL-5 (melanoma), single dose 10^−5 M, 48 h; read-out: Growth inhibition percentage
Description: as §1

NCI-H460 = conditions: Homo sapiens; NCI-H460 (non-small cell lung cancer), single dose 10^−5 M, 48 h; read-out: Growth inhibition percentage
Description: as §1

OVCAR-3 = conditions: Homo sapiens; OVCAR-3 (ovarian cancer), single dose 10^−5 M, 48 h; read-out: Growth inhibition percentage
Description: as §1

NCI-H322M = conditions: Homo sapiens; NCI-H322M (non-small cell lung cancer), single dose 10^−5 M, 48 h; read-out: Growth inhibition percentage
Description: as §1

EKVX = conditions: Homo sapiens; EKVX (non-small cell lung cancer), single dose 10^−5 M, 48 h; read-out: Growth inhibition percentage
Description: as §1

U251 = conditions: Homo sapiens, U-251; U251 (CNS cancer), single dose 10^−5 M, 48 h; read-out: Growth inhibition percentage
Description: as §1

UO-31 = conditions: Homo sapiens; UO-31 (renal cancer), single dose 10^−5 M, 48 h; read-out: Growth inhibition percentage
Description: as §1

IGROV1 = conditions: Homo sapiens, IGROV-1; IGROV1 (ovarian cancer), single dose 10^−5 M, 48 h; read-out: Growth inhibition percentage
Description: as §1

SN12C = conditions: Homo sapiens; SN12C (renal cancer), single dose 10^−5 M, 48 h; read-out: Growth inhibition percentage
Description: as §1

OVCAR-8 = conditions: Homo sapiens; OVCAR-8 (ovarian cancer), single dose 10^−5 M, 48 h; read-out: Growth inhibition percentage
Description: as §1

A498 = conditions: Homo sapiens; A498 (renal cancer), single dose 10^−5 M, 48 h; read-out: Growth inhibition percentage
Description: as §1

SK-MEL-28 = conditions: Homo sapiens; SK-MEL-28 (melanoma), single dose 10^−5 M, 48 h; read-out: Growth inhibition percentage
Description: as §1

786-0 = conditions: Homo sapiens; 786-0 (renal cancer), single dose 10^−5 M, 48 h; read-out: Growth inhibition percentage
Description: as §1

KM12 = conditions: Homo sapiens; KM12 (colon cancer), single dose 10^−5 M, 48 h; read-out: Growth inhibition percentage
Description: as §1

NCI/ADR-RES = conditions: Homo sapiens; NCI/ADR-RES (ovarian cancer), single dose 10^−5 M, 48 h; read-out: Growth inhibition percentage
Description: as §1

SK-OV-3 = conditions: Homo sapiens; SK-OV-3 (ovarian cancer), single dose 10^−5 M, 48 h; read-out: Growth inhibition percentage
Description: as §1

SNB-75 = conditions: Homo sapiens; SNB-75 (CNS cancer), single dose 10^−5 M, 48 h; read-out: Growth inhibition percentage
Description: as §1

DU-145 = conditions: Homo sapiens; DU-145 (prostate cancer), single dose 10^−5 M, 48 h; read-out: Growth inhibition percentage
Description: as §1

MDA-MB-468 = conditions: Homo sapiens; MDA-MB-468 (breast cancer), single dose 10^−5 M, 48 h; read-out: Growth inhibition percentage
Description: as §1

NCI-H226 = conditions: Homo sapiens; NCI-H226 (non-small cell lung cancer), single dose 10^−5 M, 48 h; read-out: Growth inhibition percentage
Description: as §1

SMILES	inhibition at 10 µM (MDA-MB-435)	inhibition at 10 µM (SK-MEL-5)	inhibition at 10 µM (NCI-H460)	inhibition at 10 µM (OVCAR-3)	inhibition at 10 µM (NCI-H322M)	inhibition at 10 µM (EKVX)	inhibition at 10 µM (U251)	inhibition at 10 µM (UO-31)	inhibition at 10 µM (IGROV1)	inhibition at 10 µM (SN12C)	inhibition at 10 µM (OVCAR-8)	inhibition at 10 µM (A498)	inhibition at 10 µM (SK-MEL-28)	inhibition at 10 µM (786-0)	inhibition at 10 µM (KM12)	inhibition at 10 µM (NCI/ADR-RES)	inhibition at 10 µM (SK-OV-3)	inhibition at 10 µM (SNB-75)	inhibition at 10 µM (DU-145)	inhibition at 10 µM (MDA-MB-468)	further results
Cc1nn(-c2ccc(F)cc2)c2ncnc(N3CCOCC3)c12 [Compound 8a, 1–(4-Fluorophenyl)-3-methyl-4-morpholino-1H-pyrazolo[3,4-d]pyrimidine]	-2.24%	-0.67%	-8.23%	-5.65%	5.51%	19.5%	-1.7%	5.57%	-3.29%	1.12%	-5.87%	4.93%	-12.6%	10.6%	0.04%	-6.35%	-7.07%	0.92%	-7.7%	-7.8%	inhibition at 10 µM (NCI-H226): -8.48%
Cc1nn(-c2ccc(F)cc2)c2nc(N)nc(N)c12 [Compound 5, 1–(4-Fluorophenyl)-3-methyl-1H-pyrazolo[3,4-d]pyrimidine-4,6-diamine]	-7.73%	0.86%	-18.8%	-12.9%	8.14%	6.25%	-6.63%	14.2%	6.71%	-2.74%	-7.15%	-3.11%	-4.89%	2.79%	1.24%	-3.45%	-6.26%	5.33%	-9.51%	-15.5%	inhibition at 10 µM (NCI-H226): -8.08%
Cc1nn(-c2ccc(F)cc2)c2nc[nH]c(=O)c12 [Compound 3, 1–(4-Fluorophenyl)-3-methyl-1H-pyrazolo[3,4-d]pyrimidin-4(5H)-one]	-7.05%	0.31%	-9.62%	-5.82%	5.19%	36.2%	-1.7%	11.7%	5.29%	-2.5%	-0.16%	0.02%	-14.1%	1.16%	1.48%	-1.22%	-2.82%	0.29%	-6.51%	-11.5%	inhibition at 10 µM (NCI-H226): -9.27%
Cc1nn(-c2ccc(F)cc2)c2ncnc(N)c12 [Compound 4, 1–(4-Fluorophenyl)-3-methyl-1H-pyrazolo[3,4-d]pyrimidin-4-amine]	-5.15%	2%	-9.3%	-2.81%	7.26%	19.1%	-7.56%	11.3%	11.1%	-1.4%	-4.64%	0.68%	-3.55%	9.41%	3.5%	0.66%	-5.01%	8.18%	-7.26%	-13.2%	inhibition at 10 µM (NCI-H226): -7.4%
Cc1ccc(Nc2ncnc3c2c(C)nn3-c2ccc(F)cc2)cc1 [Compound 7c, 1–(4-Fluorophenyl)-3-methyl-N-(p-tolyl)-1H-pyrazolo[3,4-d]-pyrimidin-4-amine]	-6.94%	-3.74%	-9.33%	-6.58%	10%	3.39%	2.65%	8.66%	1.54%	48.4%	2.02%	5.97%	-11.1%	0.56%	-1.11%	-6.46%	-16.7%	-5.2%	-8.97%	-15%	inhibition at 10 µM (NCI-H226): -10.2%
COc1cc(C=NNc2ncnc3c2c(C)nn3-c2ccc(F)cc2)ccc1O [Compound 10b, 1–(4-Fluorophenyl)-4–(2-(4-hydroxy-3-methoxybenzylidene)-hydrazinyl)-3-methyl-1H-pyrazolo[3,4-d]pyrimidine]	4.56%	43.4%	11.9%	24.2%	14.4%	12.4%	5.64%	35.6%	20.6%	14.9%	3.64%	-3.34%	-7.04%	11.3%	28.1%	4.3%	0.81%	17.5%	12.4%	8.05%	inhibition at 10 µM (NCI-H226): -2.3%
